Reference: ChEMBL document CHEMBL1156210, “Discovery of tertiary sulfonamides as potent liver X receptor antagonists” (J Med Chem, 2010)
Active and inactive are the calls of the source. The calls are words filed in the database; no cut-off is given here.

Columns and labels:
[1] = target: T1, Oxysterols receptor LXR-beta (Homo sapiens, UniProt P55055); experiment: Displacement of [N-methyl-3H]T1317 from human biotinylated LXRbeta LBD after 3 hrs by LEAD seeker binding assay
[2] = target: T2, Oxysterols receptor LXR-alpha (Homo sapiens) (UniProt Q13133); experiment: (§1) Agonist activity at LXRalpha ligand binding domain-mediated transcriptional activity in african green monkey CV1 cells co-transfected with Gal4-SRC1 by luciferase reporter assay; format: cell-based; settings: CV-1
T2 sequence (whole entry): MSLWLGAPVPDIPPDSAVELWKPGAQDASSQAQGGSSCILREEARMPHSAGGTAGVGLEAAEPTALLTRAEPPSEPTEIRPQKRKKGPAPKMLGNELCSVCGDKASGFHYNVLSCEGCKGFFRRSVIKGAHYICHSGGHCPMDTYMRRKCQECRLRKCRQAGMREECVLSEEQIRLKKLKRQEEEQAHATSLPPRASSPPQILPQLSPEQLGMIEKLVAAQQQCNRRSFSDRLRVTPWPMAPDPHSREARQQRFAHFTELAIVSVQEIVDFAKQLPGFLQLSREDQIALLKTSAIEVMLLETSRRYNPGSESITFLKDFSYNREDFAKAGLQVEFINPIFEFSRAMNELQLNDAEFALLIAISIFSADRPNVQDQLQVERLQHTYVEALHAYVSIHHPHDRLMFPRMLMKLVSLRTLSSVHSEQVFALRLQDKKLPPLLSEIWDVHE

HepG2 [3] = experiment: Inhibition of GW-3965-induced SREBP-1c expression in human HepG2 cells; format: functional, cell-based
THP-1 = experiment: Inhibition of ABCA1 expression in human THP1 cells; format: functional, cell-based
HepG2 [4] = experiment: Inhibition of SREBP-1c expression in human HepG2 cells; format: functional, cell-based
[5] = target: T1, Oxysterols receptor LXR-beta; settings: CV-1
HepG2 [6] = experiment: Inhibition of basal triglyceride level in human HepG2 cells
[7] = target: T3, Oxysterols receptor LXR-alpha (Homo sapiens, UniProt Q13133); experiment: as §1; format: cell-based, CV-1
T3 sequence (Q13133 whole entry): T2 sequence (whole entry)

[8] = target: T1, Oxysterols receptor LXR-beta; experiment: Agonist activity at LXRbeta ligand binding domain-mediated transcriptional activity in african green monkey CV1 cells co-transfected with Gal4-SRC1 by luciferase reporter assay; format: cell-based, CV-1

T1 sequence (P55055 whole entry, the tested form may be a part): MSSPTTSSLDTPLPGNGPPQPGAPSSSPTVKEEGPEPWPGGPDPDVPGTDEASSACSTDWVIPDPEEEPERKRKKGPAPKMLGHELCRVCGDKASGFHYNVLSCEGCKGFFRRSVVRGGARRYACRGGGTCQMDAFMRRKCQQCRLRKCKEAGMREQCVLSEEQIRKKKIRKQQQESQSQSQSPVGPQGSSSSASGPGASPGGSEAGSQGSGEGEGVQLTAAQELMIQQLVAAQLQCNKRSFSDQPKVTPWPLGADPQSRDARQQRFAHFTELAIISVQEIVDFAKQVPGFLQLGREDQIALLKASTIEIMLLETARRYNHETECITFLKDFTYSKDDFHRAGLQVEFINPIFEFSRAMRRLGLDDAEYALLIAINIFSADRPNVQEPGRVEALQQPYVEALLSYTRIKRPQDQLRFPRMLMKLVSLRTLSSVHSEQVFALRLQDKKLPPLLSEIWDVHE

Row | SMILES | IC50 [1] [nM] | EC50 [7] [nM] | other results
1 | Fc1ccc(CN(Cc2ccccc2)Cc2ccc(-c3ccccc3)cc2)c(Cl)c1 | > 10000 | – | –
2 | Cc1ccccc1S(=O)(=O)N(Cc1ccc(-c2cccc(S(C)(=O)=O)c2)cc1)Cc1c(F)cccc1Cl | – | 12.6 | –
3 | Cn1cnc(S(=O)(=O)N(Cc2ccc(-c3cccc(S(C)(=O)=O)c3)cc2)Cc2c(F)cccc2Cl)c1 | – | 79.4 | –
4 | Cc1cc(C)c(S(=O)(=O)N(Cc2ccc(-c3cccc(S(C)(=O)=O)c3)cc2)Cc2ccc(F)cc2Cl)c(C)c1 | – | 126 | –
5 | CS(=O)(=O)c1cccc(-c2ccc(CN(Cc3c(F)cccc3Cl)S(=O)(=O)C3CC3)cc2)c1 | – | 100 | –
6 | Cc1cc(C)c(S(=O)(=O)N(Cc2ccc(-c3cccc(S(C)(=O)=O)c3)cc2)Cc2c(F)cccc2Cl)c(C)c1 | – | 79.4 | –

Further lines, with some results ahead:

Row | IC50 [1] [nM] | EC50 [7] [nM] | SMILES | other results
7 | 31.6 | – | Cc1cc(C)c(S(=O)(=O)N(Cc2ccc(-c3cccc(S(C)(=O)=O)c3)cc2)Cc2ccc(C(F)(F)F)o2)c(C)c1 | pEC50 [2]: inactive; Activity (HepG2 [3]): Dose-dependent effect; IC50 (THP-1): < 100 nM; IC50 (HepG2 [4]): < 100 nM; pEC50 [5]: inactive; Activity (HepG2 [6]): Active
8 | > 10000 | – | O=C(c1ccccc1)N(Cc1ccc(-c2ccccc2)cc1)Cc1ccc(F)cc1Cl | –
9 | – | 10 | CS(=O)(=O)c1cccc(-c2ccc(CN(Cc3ccc(F)cc3Cl)S(=O)(=O)c3ccccc3)cc2)c1 | –
10 | 19.9 | – | O=C(O)Cc1cccc(OCCCN(Cc2cccc(C(F)(F)F)c2Cl)CC(c2ccccc2)c2ccccc2)c1 | EC50 [8]: 100 nM
11 | – | 6.31 | CS(=O)(=O)c1cccc(-c2ccc(CN(Cc3c(F)cccc3Cl)S(=O)(=O)c3ccccc3)cc2)c1 | –
